Measured values reported in US10246481B2, “Bile acid derivatives and methods for synthesis and use” (City of Hope, priority 2016, dated 2019).

Experiments:
pAKT S473 = assay: Western blot of AKT phosphorylation in serum-starved HepG2 cells; format: cell-based, human; settings: 10 min
Experimental: Cell extracts were used to separate proteins by SDS-PAGE, and Western blot analysis was performed using specific antibodies against phosphorylated AKT and phosphorylated GSK3beta. […] Extracts were analyzed by Western blot using specific antibodies against pAKT S473 (left panel) or pGSK3beta (right panel).
To further investigate the dose dependence of AKT phosphorylation, we treated HepG2 cells with increasing concentrations of 6EUDCA. Serum-starved HepG2 cell extracts were prepared after incubation with different concentrations of 6EUDCA (DMSO/0 M, 1 μM, 3 μM, 10 µM or 30 µM) for 10 min. Extracts were analyzed by Western blot using specific antibodies against pAKT S473 (left panel) or pGSK3beta (right panel).

FXR target gene SHP = assay: qPCR analysis of the FXR target gene SHP in HepG2 cells; format: cell-based, human; settings: serum starved HepG2, overnight; 100 μM UDCA, 10 μM 6EUDCA; normalized with 36b4
phosphorylated AKT = assay: Western blot of AKT phosphorylation in mouse primary hepatocytes from wild-type or fxr-/- mice; settings: serum-starved mouse primary hepatocytes, 10 min
GST-hFXR = target: T1, GST-hFXR (Homo sapiens, UniProt Q96RI1); settings: UDCA 1000, 300 or 100 μM; 6EUDCA 100, 30 or 10 μM; 15 or 25 min
T1 sequence (Q96RI1 1-486): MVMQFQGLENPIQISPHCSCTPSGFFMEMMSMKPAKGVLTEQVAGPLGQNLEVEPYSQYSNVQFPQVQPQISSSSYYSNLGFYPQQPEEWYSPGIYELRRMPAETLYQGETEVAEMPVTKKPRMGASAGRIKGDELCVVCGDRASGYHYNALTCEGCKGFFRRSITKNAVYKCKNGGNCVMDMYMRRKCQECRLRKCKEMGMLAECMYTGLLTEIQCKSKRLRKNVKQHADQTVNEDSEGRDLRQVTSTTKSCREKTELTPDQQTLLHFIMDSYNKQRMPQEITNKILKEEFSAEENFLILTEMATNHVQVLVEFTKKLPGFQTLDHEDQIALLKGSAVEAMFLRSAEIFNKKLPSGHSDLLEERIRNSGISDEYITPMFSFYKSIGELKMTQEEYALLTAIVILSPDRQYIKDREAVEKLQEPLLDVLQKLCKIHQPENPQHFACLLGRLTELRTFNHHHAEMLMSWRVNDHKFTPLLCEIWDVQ

SMILES | dose dependence of AKT phosphorylation (pAKT S473; HepG2, 1 μM, 3 μM, 10 μM or 30 μM) | induction of AKT phosphorylation (pAKT S473; serum starved HepG2 cells) | induction of the FXR target gene SHP (qPCR) (FXR target gene SHP) | phosphorylation of AKT in fxr-/- hepatocytes (phosphorylated AKT) | phosphorylation of AKT in wild-type hepatocytes (phosphorylated AKT) | binding to FXR in TR-FRET assay (reduction in fluorescence signal of DY246) (GST-hFXR)
CC[C@H]1[C@H](O)[C@@H]2[C@H](CC[C@]3(C)[C@@H]([C@H](C)CCC(=O)O)CC[C@@H]23)[C@@]2(C)CC[C@@H](O)C[C@@H]12 [6EUDCA, 3α, 7β-Dihydroxy-6α-ethyl-5β-cholan-24-oic acid] | dose dependent | effective in inducing AKT phosphorylation | neither UDCA nor 6EUDCA could induce the FXR target gene SHP | not in fxr−/− hepatocytes | induced phosphorylation of AKT in wild-type hepatocytes | binds FXR with higher affinity
C[C@H](CCC(=O)O)[C@H]1CC[C@H]2[C@@H]3[C@@H](O)C[C@@H]4C[C@H](O)CC[C@]4(C)[C@H]3CC[C@]12C [UDCA, Ursodeoxycholic acid, reference compound] | – | – | – | not in fxr−/− hepatocytes | induced phosphorylation of AKT in wild-type hepatocytes | –
